Reference: US20090118135A1, “METHODS AND COMPOUNDS FOR REGULATING APOPTOSIS” (The Burnham Institute, priority 2007, published 2009)
Read-outs that look alike come from different tables or passages of the source.

Biological target: T1, GST-Bcl-B (Homo sapiens, UniProt Q9HD36)
T1 sequence (Q9HD36 1-182 limits assumed): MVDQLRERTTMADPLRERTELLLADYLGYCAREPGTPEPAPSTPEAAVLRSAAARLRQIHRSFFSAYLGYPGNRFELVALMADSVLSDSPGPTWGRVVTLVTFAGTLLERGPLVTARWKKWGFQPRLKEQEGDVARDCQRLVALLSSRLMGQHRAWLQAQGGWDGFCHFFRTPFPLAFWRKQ
Experiment: Bcl-B/FITC-TR3-r8 fluorescence polarization competition (displacement) assay, HTS and dose-response

[1] = Table 8, NCI Structural library, Binding Assay, FP, Concentration 0.02 uM
[2] = read-out: Result Value (Result Type % Inhibition), BCL-b/TR3
[3] = Table 7, NCI Mechanistic library, Binding Assay, FP, Concentration 0.02 uM
[4] = LOPAC1280 library primary screen
[5] = LOPAC1280 library, fluorescence intensity normalized to plate negative controls
[6] = read-out: Result Value (% Inhibition)
[7] = read-out: Result Value (Result Type % Inhibition), BCL-b/TR3, Table 7, NCI Mechanistic library, Binding Assay, FP, Concentration 0.02 uM
[8] = read-out: Result Value (Result Type % Inhibition), BCL-b/TR3, Table 8, NCI Structural library, Binding Assay, FP, Concentration 0.02 uM
[9] = read-out: Result Value (% Inhibition), LOPAC1280 (Sigma-Aldrich) library, BCL-b/TR3 Binding Assay, FP, Concentration 0.02 uM, % competition

| F Ratio [1] | Is Hit [1] | inhibition at 0.02 µM [2] [%] | Structure (SMILES) | further results |
| --- | --- | --- | --- | --- |
| 0.5232 | Yes | 138 | COc1cccc2c1C(=N)c1c(O)c3c(c(O)c1C2=O)C[C@@](O)(C(C)=O)C[C@@H]3OC1CC(N)C(O)C(C)O1 (stereo partly drawn) [Compound 254681] | – |
| 1.4788 | Yes | 68.6 | Nc1nc(Sc2ccc([N+](=O)[O-])c3nonc23)c2nc[nH]c2n1 [Compound 348401] | – |
| – | – | 53.3 | COc1ccc2c(NCCCCCCNc3c4ccccc4nc4cc(OC)ccc34)c3ccccc3nc2c1 [Compound 260610] | F Ratio [3]: 0.269; Is Hit [3]: Yes |
| 0.1552 | Yes | 123 | CCc1c(O)c2c(c(O)c1C(C)=O)C(=O)c1c(cc(O)c(C(=O)O)c1C(=O)O)C2=O [Compound 170005] | – |
| – | – | 60.6 | CN(C)c1ccc(/C=c2\c3n(c4ccccc24)N(C)C(c2ccc(Cl)cc2)C=3)cc1.O=S(=O)(O)C(F)(F)F (stereo not drawn) [Compound 699479] | F Ratio [3]: 0.1793; Is Hit [3]: Yes |
| – | – | 82.6 | CN(C)CCc1c2c(nc3ccccc13)C(=O)c1cccnc1C2=O [Compound 680734] | F Ratio [3]: 0.1433; Is Hit [3]: Yes |
| – | – | 51.9 | N=C(N)NCCCS(=O)(=O)Nc1ccc(Nc2c3ccccc3nc3cc([N+](=O)[O-])ccc23)cc1 [Compound 177365] | F Ratio [3]: 0.439; Is Hit [3]: Yes |
| – | – | 94 | O=S(=O)(O)c1cc(/N=N/c2cc(S(=O)(=O)O)c3cccnc3c2O)ccc1/C=C/c1ccc(/N=N/c2cc(S(=O)(=O)O)c3cccnc3c2O)cc1S(=O)(=O)O [Compound 635352] | F Ratio [3]: 0.04471; Is Hit [3]: Yes |
| 0.06989 | Yes | 120 | N=C(N)c1ccc(/N=N/c2c(O)ccc3c2[nH]c2ccccc23)cc1 [Compound 357777] | – |
| 0.6261 | Yes | 61.8 | Ic1ccc2c(c1)N(c1ccccc1)c1cc(Nc3ccc4nc5ccc(I)cc5[n+](-c5ccccc5)c4c3)ccc1N2 [Compound 402959] | – |
| 0.1416 | Yes | 110 | CN(C)CCCNc1cc(O)c2c(c1O)C(=O)c1ccccc1C2=O [Compound 339585] | – |
| 1.1279 | Yes | 150 | CCOc1ccc2nc3cc(/N=N/c4ccc(N)nc4N)ccc3c(N)c2c1.Cl [Compound 354961] | – |

More lines, now with the values behind:

| Structure (SMILES) | F Ratio [1] | Is Hit [1] | inhibition at 0.02 µM [2] [%] | further results |
| --- | --- | --- | --- | --- |
| NC(=O)OCC1=C(COC(N)=O)C(=O)c2c(O)ccc(O)c2C1=O [Compound 224124] | – | – | 145 | F Ratio [3]: 1.1456; Is Hit [3]: Yes |
| COC(=O)c1ccc(O)c2nc3c(C=O)c(O)cc(O)c3nc12 [Compound 106995] | – | – | 98.9 | F Ratio [3]: 0.08027; Is Hit [3]: Yes |
| C[C@H](Cc1ccc(O)c(O)c1)[C@@H](C)Cc1ccc(O)c(O)c1 [N 5023] | – | – | – | Is Hit [4]: Yes; F Ratio [5]: 0.09564; inhibition at 0.02 µM [6]: 67.5% |
| CN(C)CCN1C(=O)c2cccc3cc(N)cc(c23)C1=O [Compound 308847] | – | – | – | F Ratio [3]: 0.6345; Is Hit [3]: Yes; inhibition at 0.02 µM [7]: 87.6% |
| O=C(O)c1cnc2c(ccc3ncc(C(=O)O)c(O)c32)c1O [Compound 128884] | 0.205 | Yes | 55.3 | – |
| CC[n+]1c(-c2ccccc2)c2cc(N)ccc2c2ccc(N)cc21 [Compound 268986] | – | – | – | F Ratio [3]: 0.3849; Is Hit [3]: Yes; inhibition at 0.02 µM [7]: 149% |
| O=C1C=C(N2CCNCC2)C(=O)c2c(O)ccc(O)c21 [Compound 658144] | – | – | – | Is Hit [3]: Yes |
| O=C(O)C1CCCCC1c1c2ccc(=O)c(O)c-2oc2c(O)c(O)ccc12 (stereo not drawn) [Compound 119910] | 0.1582 | Yes | 119 | – |
| N=C1C=CC(=C(c2ccc(N)cc2)c2ccc(N)cc2)C=C1 [Compound 10460] | 0.1378 | Yes | 81.7 | – |
| CC(=O)O.CCN(CC)CC[n+]1ccc2c(C)c3[nH]c4ccc(O)cc4c3c(C)c2c1 [Compound 311152] | 0.7711 | Yes | 128 | – |
| O=C(O)/C=C/c1c2ccc(=O)c(O)c-2oc2c(O)c(O)ccc12 [Compound 119911] | 0.07992 | Yes | 123 | – |
| Oc1ccc(Cc2nccc3cc(O)c(O)cc23)cc1O [Compound 99799] | 0.09369 | Yes | 77.4 | – |
| O=C1c2cc([N+](=O)[O-])ccc2-c2ccc3c4ccc5c6c(ccc(c7ccc1c2c73)c64)C(=O)c1cc([N+](=O)[O-])ccc1-5 [Compound 51535] | 0.4823 | Yes | 146 | – |
| O=[N+]([O-])c1ccc2c(/N=N/c3ccc4ccccc4c3O)c(O)cc(S(=O)(=O)O)c2c1 [Compound 7223] | 0.05712 | Yes | 139 | – |
| CCN(CCO)CCNc1ccc(C)c2sc3ccccc3c(=O)c12 [Compound 20534] | – | – | 74.4 | F Ratio [3]: 0.6411; Is Hit [3]: Yes |
| O=C1c2c(O)ccc(O)c2C(=O)c2c(NCCNCCO)ccc(NCCNCCO)c21 [M 6545] | – | – | – | Is Hit [4]: Yes; F Ratio [5]: 1.1021; inhibition at 0.02 µM [6]: 148% |
| CCN1C=C/C(=C\C=C\c2cc[n+](CC)c3ccccc23)C2C=CC=CC21 (stereo not drawn) [Compound 34391] | – | – | 104 | F Ratio [3]: 0.2486; Is Hit [3]: Yes |
| Cc1nc(/N=N\c2cc(S(=O)(=O)O)c3cc([N+](=O)[O-])cc(S(=O)(=O)O)c3c2)c(COP(=O)(O)O)c(C=O)c1O [P 2738] | – | – | – | Is Hit [4]: Yes; F Ratio [5]: 0.2636; inhibition at 0.02 µM [6]: 66.6% |

| Structure (SMILES) | F Ratio [1] | Is Hit [1] | inhibition at 0.02 µM [2] [%] | further results |
| --- | --- | --- | --- | --- |
| COc1cc(-c2[o+]c3cc(O)cc(O)c3cc2O)cc(O)c1O.O=C(O)c1ccccc1 [Compound 114885] | 0.08249 | Yes | – | inhibition at 0.02 µM [8]: 108% |
| [NH3+][Ru]([NH3+])([NH3+])([NH3+])([NH3+])[O][Ru]([NH3+])([NH3+])([NH3+])([NH3+])[O][Ru]([NH3+])([NH3+])([NH3+])([NH3+])[NH3+] [R 2751] | – | – | – | Is Hit [4]: Yes; F Ratio [5]: 1.1267 |
| Nc1nc(N)c(/N=N/c2ccc(C(=O)O)c(O)c2)c(N)n1 [Compound 117285] | 0.2954 | Yes | 59.9 | – |
| CN(C)CS/C(N)=N\C(O)C(Cl)(Cl)Cl (stereo not drawn) [Compound 14555] | 0.6767 | Yes | – | inhibition at 0.02 µM [8]: 59.9% |
| O=S(=O)(O)c1cc(/N=[N+](\[O-])c2cc(S(=O)(=O)O)c3ccccc3c2)cc2ccccc12 [Compound 37031] | 0.4022 | Yes | 84.6 | – |
| CN(N=O)c1ccc(O)c(O)c1 [M 9440] | – | – | – | Is Hit [4]: Yes; F Ratio [5]: 0.08483; inhibition at 0.02 µM [9]: 121% |
| N#C/C(=C\c1ccc(O)c(O)c1)C(=O)c1ccc(O)c(O)c1 [T 7822] | – | – | – | Is Hit [4]: Yes; F Ratio [5]: 0.1036; inhibition at 0.02 µM [6]: 61.7% |
| CN(N=O)c1cc(O)ccc1O [D 8065] | – | – | – | Is Hit [4]: Yes; F Ratio [5]: 0.1152; inhibition at 0.02 µM [9]: 95.3% |
| Cc1cc2c(C(C)C)c(O)c(O)c(C=O)c2c(O)c1-c1c(C)cc2c(C(C)C)c(O)c(O)c(C=O)c2c1O [Compound 56817] | – | – | – | F Ratio [3]: 0.1472; Is Hit [3]: Yes; inhibition at 0.02 µM [7]: 57.3% |
| O=[N+]([O-])c1cc(Cc2cc([N+](=O)[O-])c3cccnc3c2O)c(O)c2ncccc12 [Compound 130798] | 0.1969 | Yes | – | inhibition at 0.02 µM [8]: 115% |
| Nc1ccc(/N=N/c2ccc(-c3ccc(O)cc3)cc2)c2ccc(S(=O)(=O)O)cc12 [Compound 65528] | 0.1609 | Yes | 71.6 | – |
| O=S(=O)(O)c1ccc2cc(/N=N/c3cc(S(=O)(=O)O)c4cccnc4c3O)ccc2c1 [Compound 87677] | 0.3822 | Yes | 66.1 | – |
| CS(=O)(=O)Nc1ccc(Nc2c3ccccc3nc3ccccc23)cc1 [Compound 156305] | 0.1208 | Yes | 58.6 | – |
| O=[N+]([O-])c1ccc2c(/N=N/c3c(O)ccc4ccccc34)c(O)cc(S(=O)(=O)O)c2c1 [Compound 73413] | – | – | 125 | F Ratio [3]: 0.05947; Is Hit [3]: Yes |
| O=C(O)c1cccc(/N=N/c2c(S(=O)(=O)O)ccc3c2C(=O)c2ccccc2C3=O)c1O [Compound 125908] | 0.2215 | Yes | 124 | – |
| NC(Cc1cc(O)c(O)cc1O)C(=O)O (stereo not drawn) [H 2380] | – | – | – | F Ratio: 0.06315; Is Hit: Yes; inhibition at 0.02 µM [6]: 136% |
| O=S(=O)(O)c1ccc2c(/N=N/c3cccc4ccccc34)c(O)c(S(=O)(=O)O)cc2c1 [Compound 45583] | 0.1069 | Yes | 84.6 | – |
| Oc1c(C(O)(c2ccccc2)c2ccc3ccccc3c2O)ccc2ccccc12 [Compound 13984] | 0.7704 | Yes | 87 | – |
